26 compounds from patent US10975056B2 (GlaxoSmithKline Intellectual Property Development Limited, priority 2016, dated 2021) can be followed below.

For one experiment, the target named is DNMT1 (Homo sapiens, UniProt P26358). Kind of experiment: DNMT1 biochemical activity, breaklight assay and/or SPA assay.
Experiment [1] deals with erythroid progenitor cells (EPCs). Kind of experiment: Fetal hemoglobin (HbF) ELISA in day 7 erythroid progenitor cells.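 Also: for fetal hemoglobin induction normalized to vehicle-treated cells.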 The class given is cell-based, human. The note with it: Homo sapiens, Erythroid progenitor cell, HbF ELISA, day 7 EPCs, 5 days; read-out: EPC ELISA (pEC50 category) (converted). Put shortly:
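CD34+-derived EPCs, 1,000 cells/well, rhEPO 3 U/mL; Compound A 22-pt series, […]; 5 d, 37° C, 5% CO2. Freeze-thaw lysis, anti-HbF capture + HRP anti-HbF, TMB, OD450. Normalized to DMSO wells.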

Setting [2] is: binned activity in either the breaklight or the SPA assay.
Where [3] appears, read: binned activity in either the breaklight or the SPA assay, read-out: DNMT1 BioChemical (pIC50 category) (converted).
Where [4] appears, read: breaklight assay and/or SPA assay, repeated experimental runs, read-out: average pIC50 against DNMT1 (converted).

The structures appear in SMILES notation. Where “and” joins values, the source holds several entries; their conditions need not be identical. Equal entries are not always repeated. Structures can show the parent of a compound that is named as a salt. Where two headings read alike, the source gives them in different places.

Chain of DNMT1 (P26358 whole entry, looked up): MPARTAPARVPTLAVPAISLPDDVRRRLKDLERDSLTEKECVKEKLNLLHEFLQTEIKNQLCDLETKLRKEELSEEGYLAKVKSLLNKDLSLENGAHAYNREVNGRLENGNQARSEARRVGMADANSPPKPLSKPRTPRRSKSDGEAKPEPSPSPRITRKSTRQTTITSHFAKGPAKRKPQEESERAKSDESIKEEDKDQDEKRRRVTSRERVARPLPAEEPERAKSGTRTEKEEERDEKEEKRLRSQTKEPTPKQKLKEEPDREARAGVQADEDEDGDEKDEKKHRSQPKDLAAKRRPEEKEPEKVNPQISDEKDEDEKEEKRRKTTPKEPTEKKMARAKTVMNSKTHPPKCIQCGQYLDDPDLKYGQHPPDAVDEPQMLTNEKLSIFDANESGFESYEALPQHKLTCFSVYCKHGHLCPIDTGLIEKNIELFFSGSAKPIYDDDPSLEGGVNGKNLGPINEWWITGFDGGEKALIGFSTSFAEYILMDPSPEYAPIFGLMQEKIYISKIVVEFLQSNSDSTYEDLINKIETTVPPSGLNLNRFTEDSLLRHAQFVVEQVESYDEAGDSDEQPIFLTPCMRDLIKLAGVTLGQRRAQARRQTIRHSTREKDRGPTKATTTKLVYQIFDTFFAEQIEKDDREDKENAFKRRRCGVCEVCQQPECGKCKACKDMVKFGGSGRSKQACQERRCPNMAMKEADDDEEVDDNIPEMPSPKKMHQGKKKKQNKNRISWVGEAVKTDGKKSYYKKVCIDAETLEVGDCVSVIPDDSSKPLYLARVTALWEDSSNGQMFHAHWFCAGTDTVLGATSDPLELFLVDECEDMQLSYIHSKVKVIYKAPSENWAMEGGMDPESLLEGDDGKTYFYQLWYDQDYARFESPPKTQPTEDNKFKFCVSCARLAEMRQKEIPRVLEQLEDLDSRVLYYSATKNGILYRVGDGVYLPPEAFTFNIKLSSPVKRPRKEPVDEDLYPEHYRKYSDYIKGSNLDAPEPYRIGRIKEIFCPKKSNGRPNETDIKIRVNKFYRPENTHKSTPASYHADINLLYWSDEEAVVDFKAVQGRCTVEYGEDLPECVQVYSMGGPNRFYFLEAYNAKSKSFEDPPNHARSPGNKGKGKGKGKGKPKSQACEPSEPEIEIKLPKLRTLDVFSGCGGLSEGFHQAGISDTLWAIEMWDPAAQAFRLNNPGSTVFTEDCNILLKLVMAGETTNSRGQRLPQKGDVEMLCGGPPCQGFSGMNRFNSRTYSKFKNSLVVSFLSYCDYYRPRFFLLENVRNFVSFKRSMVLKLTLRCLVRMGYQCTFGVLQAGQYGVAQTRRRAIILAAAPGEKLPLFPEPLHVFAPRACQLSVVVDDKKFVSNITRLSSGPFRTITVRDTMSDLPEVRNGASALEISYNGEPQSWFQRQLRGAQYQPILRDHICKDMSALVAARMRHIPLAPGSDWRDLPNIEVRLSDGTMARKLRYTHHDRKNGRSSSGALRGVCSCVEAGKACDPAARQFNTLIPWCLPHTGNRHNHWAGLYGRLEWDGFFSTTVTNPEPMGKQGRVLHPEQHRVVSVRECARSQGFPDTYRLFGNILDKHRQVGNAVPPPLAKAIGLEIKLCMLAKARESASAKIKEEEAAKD

For the compound `CCc1c(C#N)c(SC(C(N)=O)c2ccccc2)nc(N(C)CCN2CCCC2)c1C#N` (stereo not shown) [Example 511, 2-((3,5-dicyano-4-ethyl-6-(methyl(2-(pyrrolidin-1-yl)ethyl)amino)pyridin-2-yl)thio)-2-phenylacetamide], the “DNMT1 BioChemical (pIC50 category)” value at DNMT1 (setting [2]) was “D (Category D: ≥6.5)”. In addition, the EC50 in experiment [1] is below 316 nM.
In the case of `CCc1c(C#N)c(SC(C(N)=O)c2ccccc2)nc(N(C)CCN2[C@H](C)CC[C@H]2C)c1C#N` (stereo partly drawn) [Example 485, 2-((3,5-dicyano-6-((2-((2R,5R)-2,5-dimethylpyrrolidin-1-yl)ethyl)(methyl)amino)-4-ethylpyridin-2-yl)thio)-2-phenylacetamide], the “DNMT1 BioChemical (pIC50 category)” value at DNMT1 (setting [2]) is “D (Category D: ≥6.5)”. In experiment [1], the EC50 was below 316 nM.
For `CCc1c(C#N)c(SC(C(N)=O)c2ccccc2)nc(N(C)CCNC2(C)CC2)c1C#N` (stereo not shown) [Example 489, 2-(3,5-dicyano-4-ethyl-6-(methyl(2-(1-methylcyclopropylamino)ethyl)amino)pyridin-2-ylthio)-2-phenylacetamide], at DNMT1 (setting [2]), the “DNMT1 BioChemical (pIC50 category)” value is on record as “D (Category D: ≥6.5)”. Further, the EC50 in experiment [1] was below 316 nM.
For the compound `CCc1c(C#N)c(SC(C(N)=O)c2ccc(F)cc2)nc(N2CCC(N(C)C)CC2)c1C#N` (stereo not shown) [Example 207, 2-((3,5-Dicyano-6-(4-(dimethylamino)piperidin-1-yl)-4-ethylpyridin-2-yl)thio)-2-(4-fluorophenyl)acetamide], at DNMT1 (setting [3]), the IC50 is 316 to 1000 nM. Besides, the EC50 in experiment [1] is below 316 nM.
On the same counts, the results for `CCc1c(C#N)c(SCc2ccc(C#N)cc2)nc(N2CCCN(C)CC2)c1C#N` [Example 93, 2-((4-Cyanobenzyl)thio)-4-ethyl-6-(4-methyl-1,4-diazepan-1-yl)pyridine-3,5-dicarbonitrile] are 316 to 1000 nM and above 31600 nM.
For the compound `CCc1c(C#N)c(SC(C(N)=O)c2ccccc2)nc(N2CCN(CCCN(C)C)CC2)c1C#N` (stereo not shown) [Example 120], the IC50 at DNMT1 (setting [3]) and on DNMT1 (setting [4]) was 316 to 1000 nM in each case. Moreover, the EC50 in experiment [1] was below 316 nM.
Take `N#Cc1c(SC(C(N)=O)c2ccccc2)nc(N2CC(NC(=O)[C@@H](N)CO)C2)c(C#N)c1C1CC1` (stereo partly drawn) [Example 611, (2S)-2-amino-N-(1-(6-((2-amino-2-oxo-1-phenylethyl)thio)-3,5-dicyano-4-cyclopropylpyridin-2-yl)azetidin-3-yl)-3-hydroxypropanamide]: the “DNMT1 BioChemical (pIC50 category)” value on DNMT1 (setting [2]) is “D (Category D: ≥6.5)”. The EC50 in experiment [1] is 1000 to 31600 nM.
For the compound `CCc1c(C#N)c(SC(C(N)=O)c2ccccc2)nc(N2CCC[C@@H](CNCC(C)(C)C)C2)c1C#N` (stereo partly drawn) [Example 568, 2-((3,5-dicyano-4-ethyl-6-((S)-3-((neopentylamino)methyl)piperidin-1-yl)pyridin-2-yl)thio)-2-phenylacetamide], the “DNMT1 BioChemical (pIC50 category)” value at DNMT1 (setting [2]) is “D (Category D: ≥6.5)”. Also, the EC50 in experiment [1] was below 316 nM.
`CCc1c(C#N)c(SC(C(N)=O)c2ccccc2)nc(N2CCC(NC(=O)OC(C)(C)C)CC2)c1C#N` (stereo not shown) [Example 328, tert-Butyl (1-(6-((2-amino-2-oxo-1-phenylethyl)thio)-3,5-dicyano-4-ethylpyridin-2-yl)piperidin-4-yl)carbamate]: the IC50 on DNMT1 (setting [3]) is 1000 to 31600 nM. Also, the EC50 in experiment [1] is 316 to 1000 nM.
In the case of `CCc1c(C#N)c(SC(C(N)=O)c2ccccc2)nc(N2CCC(NC3CC3)CC2)c1C#N` (stereo not shown) [Example 552, 2-((3,5-dicyano-6-(4-(cyclopropylamino)piperidin-1-yl)-4-ethylpyridin-2-yl)thio)-2-phenylacetamide], the “DNMT1 BioChemical (pIC50 category)” value at DNMT1 (setting [2]) was “D (Category D: ≥6.5)”. Besides, in experiment [1], the EC50 was below 316 nM.
For `CCc1c(C#N)c(SC(C(N)=O)c2ccccc2)nc(N2CCC(NCc3ccc(OC)nc3)CC2)c1C#N` (stereo not shown) [Example 467, 2-((3,5-dicyano-4-ethyl-6-(4-(((6-methoxypyridin-3-yl)methyl)amino)piperidin-1-yl)pyridin-2-yl)thio)-2-phenylacetamide] the same measures were “D (Category D: ≥6.5)” and below 316 nM.
Take `CCc1c(C#N)c(SCc2ccccc2)nc(N2CCC(NC(=O)CN)CC2)c1C#N` [Example 94, 2-Amino-N-(1-(6-(benzylthio)-3,5-dicyano-4-ethylpyridin-2-yl)piperidin-4-yl)acetamide, Trifluoroacetic Acid Salt]: at DNMT1 (setting [3]), the IC50 was 316 to 1000 nM. For the same compound, the EC50 in experiment [1] is above 31600 nM.
Consider `CCc1c(C#N)c(SCc2ccc(N(C)S(C)(=O)=O)cc2)nc(N(C)CCN2CCCC2)c1C#N` [Example 570, N-(4-(((3,5-dicyano-4-ethyl-6-(methyl(2-(pyrrolidin-1-yl)ethyl)amino)pyridin-2-yl)thio)methyl)phenyl)-N-methylmethanesulfonamide], for which the “DNMT1 BioChemical (pIC50 category)” value at DNMT1 (setting [2]) is on record as “D (Category D: ≥6.5)”. Further, the EC50 in experiment [1] was below 316 nM.
For `CCc1c(C#N)c(SC(C(N)=O)c2ccccc2)nc(N2CCOC(CN3CCCC3)C2)c1C#N` (stereo not shown) [Example 560, 2-((3,5-dicyano-4-ethyl-6-(2-(pyrrolidin-1-ylmethyl)morpholino)pyridin-2-yl)thio)-2-phenylacetamide] the same measures were “D (Category D: ≥6.5)” and below 316 nM.
As to `CCc1c(C#N)c(SC(C(N)=O)c2ccccc2)nc(N(C)CC(=O)N2C[C@H](O)[C@@H](O)C2)c1C#N` (stereo partly drawn) [Example 660, 2-((3,5-dicyano-6-((2-((3S,4S)-3,4-dihydroxypyrrolidin-1-yl)-2-oxoethyl)(methyl)amino)-4-ethylpyridin-2-yl)thio)-2-phenylacetamide], the “DNMT1 BioChemical (pIC50 category)” value at DNMT1 (setting [2]) is given as “D (Category D: ≥6.5)”. Further, the EC50 in experiment [1] was 1000 to 31600 nM.
For `CCc1c(C#N)c(SC(C(N)=O)c2ccc(F)cn2)nc(N2CCC(N3CCCC3)CC2)c1C#N` (stereo not shown) [Example 211, 2-((3,5-Dicyano-4-ethyl-6-(4-(pyrrolidin-1-yl)piperidin-1-yl)pyridin-2-yl)thio)-2-(5-fluoropyridin-2-yl)acetamide, Formic Acid Salt], on DNMT1 (setting [3]), the IC50 was 316 to 1000 nM. The EC50 in experiment [1] is below 316 nM.
Take `CCc1c(C#N)c(SC(C(N)=O)c2ccccc2)nc(N2CCC(CN)C2)c1C#N` (stereo not shown) [Example 525, 2-((6-(3-(aminomethyl)pyrrolidin-1-yl)-3,5-dicyano-4-ethylpyridin-2-yl)thio)-2-phenylacetamide]: the “DNMT1 BioChemical (pIC50 category)” value on DNMT1 (setting [2]) is “D (Category D: ≥6.5)”. Also, the EC50 in experiment [1] was below 316 nM.
As for `CCc1c(C#N)c(SC(C(N)=O)c2ccccc2)nc(N2CCC(ONC(=N)N)CC2)c1C#N` (stereo not shown) [Example 634, 2-((3,5-dicyano-4-ethyl-6-(4-(guanidinooxy)piperidin-1-yl)pyridin-2-yl)thio)-2-phenylacetamide], the “DNMT1 BioChemical (pIC50 category)” value on DNMT1 (setting [2]) was “D (Category D: ≥6.5)”. The EC50 in experiment [1] was 1000 to 31600 nM.
On to `CCc1c(C#N)c(SC(C(N)=O)c2ccccc2)nc(N(C)C2CCN(C)C2)c1C#N` (stereo not shown) [Example 699, 2-((3,5-dicyano-4-ethyl-6-(methyl(1-methylpyrrolidin-3-yl)amino)pyridin-2-yl)thio)-2-phenylacetamide], for which, at DNMT1 (setting [3]), the IC50 is 316 to 1000 nM. Further, the EC50 in experiment [1] was 1000 to 31600 nM.
In the case of `CCc1c(C#N)c(SCc2ccc(S(C)(=O)=O)cc2)nc(N2CCCN(C)CC2)c1C#N` [Example 379, 4-Ethyl-2-(4-methyl-1,4-diazepan-1-yl)-6-((4-(methylsulfonyl)benzyl)thio)pyridine-3,5-dicarbonitrile], the IC50 was 316 to 1000 nM on DNMT1 (setting [3]); 316 to 1000 nM and 794 nM on DNMT1 (setting [4]). Further, in experiment [1], the EC50 is 316 to 1000 nM.
As to `CCOc1c(C#N)c(SC(C(N)=O)c2ccccc2)nc(N(C)C)c1C#N` (stereo not shown) [Example 192, 2-((3,5-Dicyano-6-(dimethylamino)-4-ethoxypyridin-2-yl)thio)-2-phenylacetamide], the “DNMT1 BioChemical (pIC50 category)” value on DNMT1 (setting [2]) is reported as “D (Category D: ≥6.5)”. Further, the EC50 in experiment [1] was 1000 to 31600 nM.
For `CCc1c(C#N)c(SCc2ccc(CNC(=O)CNC(=O)OC(C)(C)C)cc2)nc(N2CCCN(C)CC2)c1C#N` [Example 78, tert-Butyl (2-((4-(((3,5-dicyano-4-ethyl-6-(4-methyl-1,4-diazepan-1-yl)pyridin-2-yl)thio)methyl)benzyl)amino)-2-oxoethyl)carbamate], the IC50 is 316 to 1000 nM on DNMT1 (setting [3]) and at least 1000 nM at DNMT1 (setting [4]). For the same compound, the EC50 in experiment [1] is above 31600 nM.
In the case of `CCc1c(C#N)c(SC(C(N)=O)c2ccccc2)nc(N(C)CCN2CCC[C@@H]2C)c1C#N` (stereo partly drawn) [Example 463, 2-((3,5-dicyano-4-ethyl-6-(methyl(2-((S)-2-methylpyrrolidin-1-yl)ethyl)amino)pyridin-2-yl)thio)-2-phenylacetamide], the “DNMT1 BioChemical (pIC50 category)” value on DNMT1 (setting [2]) is reported as “D (Category D: ≥6.5)”. Further, the EC50 in experiment [1] is below 316 nM.
On the same counts, the results for `CCc1c(C#N)c(SC(C(N)=O)c2ccccc2)nc(N(C)CC(=O)N2CC[C@H](O)C2)c1C#N` (stereo partly drawn) [Example 616, 2-((3,5-dicyano-4-ethyl-6-((2-((S)-3-hydroxypyrrolidin-1-yl)-2-oxoethyl)(methyl)amino)pyridin-2-yl)thio)-2-phenylacetamide] are “D (Category D: ≥6.5)” and below 316 nM.
Turning to `CCc1c(C#N)c(SC(C(N)=O)c2ccc(S(=O)(=O)NC)cc2)nc(N2CCCN(C)CC2)c1C#N` (stereo not shown) [Example 378], the IC50 at DNMT1 (setting [3]) is 316 to 1000 nM. For the same compound, the EC50 in experiment [1] was 1000 to 31600 nM.
As to `CCc1c(C#N)c(SC(C(N)=O)c2ccccc2)nc(N(C)CC(=O)NC2(CO)COC2)c1C#N` (stereo not shown) [Example 675, 2-((6-((2-amino-2-oxo-1-phenylethyl)thio)-3,5-dicyano-4-ethylpyridin-2-yl)(methyl)amino)-N-(3-(hydroxymethyl)oxetan-3-yl)acetamide], at DNMT1 (setting [3]), the IC50 was below 316 nM. In experiment [1], the EC50 was 316 to 1000 nM.
